Assay results reported in patent US8067589B2, “Heterocyclic compounds useful in treating diseases and conditions” (Pfizer Inc, priority 2007, dated 2011).

Each compound was assayed against human recombinant H-PGDS (Homo sapiens, UniProt O60760) (assay: Fluoresecence Intensity h-PGDSTBA Enzyme Assay). Details: IC50, 5.0 μM PGH2, 2.5 mM L-Glutathione, 10 min preincubation, 4-parameter fit, highest inhibitor concentration typically 1 μM.
Chain of human recombinant H-PGDS (O60760 whole entry): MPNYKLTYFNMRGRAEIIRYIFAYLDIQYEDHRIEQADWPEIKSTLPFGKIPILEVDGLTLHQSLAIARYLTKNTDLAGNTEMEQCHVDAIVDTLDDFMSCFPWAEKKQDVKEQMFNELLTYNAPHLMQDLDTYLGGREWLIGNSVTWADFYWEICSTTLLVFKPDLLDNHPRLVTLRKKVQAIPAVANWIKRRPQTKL
Work on `O=C(NC1CCN(CC2CCCC2)CC1)c1cnc(-c2cccc(F)c2)nc1` [Example 66, N-[1-(Cyclopentylmethyl)piperidin-4-yl]-2-(3-fluorophenyl)pyrimidine-5-carboxamide] yielded an IC50 of 0.355 nM. For `O=C(NC1CCN(Cc2ccc(C(F)(F)F)cc2)CC1)c1cnc(-c2cccc(F)c2)nc1` [Example 67, 2-(3-Fluorophenyl)-N-{1-[4-(trifluoromethyl)benzyl]piperidin-4-yl}pyrimidine-5-carboxamide], the IC50 was 30 nM. Compound `CCC(CC)N1CCC(NC(=O)c2cnc(-c3cccc(F)c3)nc2)CC1` [Example 68, N-[1-(1-Ethylpropyl)piperidin-4-yl]-2-(3-fluorophenyl)pyrimidine-5-carboxamide] has an IC50 of 0.373 nM. `CCC(C)N1CCC(NC(=O)c2cnc(-c3cccc(F)c3)nc2)CC1` (stereo not shown) [Example 69, N-(1-sec-Butylpiperidin-4-yl)-2-(3-fluorophenyl)pyrimidine-5-carboxamide] showed an IC50 of 3.59 nM. In the case of `Cc1cc(=O)[nH]c(N2CCC(NC(=O)c3cnc(-c4cccc(F)c4)nc3)CC2)n1` [Example 70, 2-(3-Fluorophenyl)-N-[1-(4-methyl-6-oxo-1,6-dihydropyrimidin-2-yl)piperidin-4-yl]pyrimidine-5-carboxamide], the IC50 is reported as 0.962 nM. For `CC(C)(C)OC(=O)N1C[C@@H]2[C@H](C1)[C@H]2NC(=O)c1cnc(-c2cccc(F)c2)nc1` [Example 71, tert-Butyl (1R,5S,6s)-6-({[2-(3-fluorophenyl)pyrimidin-5-yl]carbonyl}amino)-3-azabicyclo[3.1.0]hexane-3-carboxylate], the IC50 was 0.355 nM. In the case of `CN1CC[C@@H](NC(=O)c2cnc(-c3cccc(F)c3)nc2)[C@@H](Cc2ccccc2)C1` [Example 72, N-[(3S,4R)-3-Benzyl-1-methylpiperidin-4-yl]-2-(3-fluorophenyl)pyrimidine-5-carboxamide], the IC50 is reported as 30 nM. Work on `O=C(NC1CCN(CC(F)(F)F)CC1)c1cnc(-c2cc(F)ccc2F)nc1` [Example 73, 2-(2,5-Difluorophenyl)-N-[1-(2,2,2-trifluoroethyl)piperidin-4-yl]pyrimidine-5-carboxamide] yielded an IC50 of 1.84 nM. `CCOC(=O)N1CCC(NC(=O)c2cnc(-c3cc(F)ccc3F)nc2)CC1` [Example 74, Ethyl 4-({[2-(2,5-difluorophenyl)pyrimidin-5-yl]carbonyl}amino)piperidine-1-carboxylate] showed an IC50 of 3.2 nM. `O=C(NC1CCN(c2ccc(C(=O)N3CCOCC3)cn2)CC1)c1cnc(-c2cc(F)ccc2F)nc1` [Example 75, 2-(2,5-Difluorophenyl)-N-{1-[5-(morpholin-4-ylcarbonyl)pyridin-2-yl]piperidin-4-yl}pyrimidine-5-carboxamide] gave an IC50 of 18.3 nM. `O=C(NC1CCN(c2ncc3c(n2)CCOC3)CC1)c1cnc(-c2cccc(F)c2)nc1` [Example 76, N-[1-(7,8-Dihydro-5H-pyrano[4,3-d]pyrimidin-2-yl)piperidin-4-yl]-2-(3-fluorophenyl)pyrimidine-5-carboxamide] gave an IC50 of 0.595 nM. `CN1CCc2nc(N3CCC(NC(=O)c4cnc(-c5cccc(F)c5)nc4)C3)ncc2C1` (stereo not shown) [Example 78, 2-(3-Fluorophenyl)-N-[1-(6-methyl-5,6,7,8-tetrahydropyrido[4,3-d]pyrimidin-2-yl)pyrrolidin-3-yl]pyrimidine-5-carboxamide] gave an IC50 of 0.379 nM. For `CN1CCc2nc(N3CC[C@@H](NC(=O)c4cnc(-c5cccc(F)c5)nc4)C3)ncc2C1` [Example 78a, 2-(3-Fluorophenyl)-N-[(3R)-1-(6-methyl-5,6,7,8-tetrahydropyrido[4,3-d]pyrimidin-2-yl)pyrrolidin-3-yl]pyrimidine-5-carboxamide], the IC50 was 13 nM. `CN1CCc2nc(N3CC[C@H](NC(=O)c4cnc(-c5cccc(F)c5)nc4)C3)ncc2C1` [Example 78b, 2-(3-Fluorophenyl)-N-[(3S)-1-(6-methyl-5,6,7,8-tetrahydropyrido[4,3-d]pyrimidin-2-yl)pyrrolidin-3-yl]pyrimidine-5-carboxamide] was tested, and the IC50 was 1 nM. For `O=C(N[C@@H]1CCN(Cc2ccccc2)C1)c1cnc(-c2cccc(F)c2)nc1` [Example 79, N-[(3R)-1-Benzylpyrrolidin-3-yl]-2-(3-fluorophenyl)pyrimidine-5-carboxamide], the IC50 was 0.346 nM. `Cc1nc(N2CCC(NC(=O)c3cnc(-c4cccc(F)c4)nc3)C2)ncc1S(C)(=O)=O` (stereo not shown) [Example 80, 2-(3-Fluorophenyl)-N-{1-[4-methyl-5-(methylsulfonyl)pyrimidin-2-yl]pyrrolidin-3-yl}pyrimidine-5-carboxamide] showed an IC50 of 0.211 nM. Work on `O=C(NC1CCN(c2ncc3c(n2)CCOC3)C1)c1cnc(-c2cccc(F)c2)nc1` (stereo not shown) [Example 81, N-[1-(7,8-Dihydro-5H-pyrano[4,3-d]pyrimidin-2-yl)pyrrolidin-3-yl]-2-(3-fluorophenyl)pyrimidine-5-carboxamide] yielded an IC50 of 0.219 nM. Work on `CCOC(=O)N1CCC(NC(=O)c2cnc(-c3cccc(F)c3)nc2)C1` (stereo not shown) [Example 82, Ethyl 3-({[2-(3-fluorophenyl)pyrimidin-5-yl]carbonyl}amino)pyrrolidine-1-carboxylate] yielded an IC50 of 0.658 nM. With `O=C(NC1CCN(Cc2cccc(Cl)c2)C1=O)c1cnc(-c2cccc(F)c2)nc1` (stereo not shown) [Example 83, N-[1-(3-Chlorobenzyl)-2-oxopyrrolidin-3-yl]-2-(3-fluorophenyl)pyrimidine-5-carboxamide] the IC50 was 1.18 nM. In the case of `O=C(NC1CCN(Cc2ccccc2C(F)(F)F)C1=O)c1cnc(-c2cccc(F)c2)nc1` (stereo not shown) [Example 84, 2-(3-Fluorophenyl)-N-{2-oxo-1-[2-(trifluoromethyl)benzyl]pyrrolidin-3-yl}pyrimidine-5-carboxamide], the IC50 is reported as 0.987 nM. For `O=C(NC1CCN(Cc2c(F)ccc(F)c2Cl)C1=O)c1cnc(-c2cccc(F)c2)nc1` (stereo not shown) [Example 85, N-[1-(2-Chloro-3,6-difluorobenzyl)-2-oxopyrrolidin-3-yl]-2-(3-fluorophenyl)pyrimidine-5-carboxamide], the IC50 was 2.34 nM. `Cc1cc(CN2CCC(NC(=O)c3cnc(-c4cccc(F)c4)nc3)C2=O)ccc1F` (stereo not shown) [Example 86, N-[1-(4-Fluoro-3-methylbenzyl)-2-oxopyrrolidin-3-yl]-2-(3-fluorophenyl)pyrimidine-5-carboxamide] was tested, and the IC50 was 6.43 nM. `CC(C)N1CCC(NC(=O)c2cnc(-c3cccc(F)c3)nc2)C1` (stereo not shown) [Example 87, 2-(3-Fluorophenyl)-N-(1-isopropylpyrrolidin-3-yl)pyrimidine-5-carboxamide] showed an IC50 of 6.57 nM. `CC(=O)N1CC[C@@H](NC(=O)c2cnc(-c3cccc(F)c3)nc2)C1` [Example 88, N-[(3R)-1-Acetylpyrrolidin-3-yl]-2-(3-fluorophenyl)pyrimidine-5-carboxamide] showed an IC50 of 1.58 nM. In the case of `O=C(NC1CCN(c2ncc3c(n2)CCC3)C1)c1cnc(-c2cccc(F)c2)nc1` (stereo not shown) [Example 89, N-[1-(6,7-Dihydro-5H-cyclopenta[d]pyrimidin-2-yl)pyrrolidin-3-yl]-2-(3-fluorophenyl)pyrimidine-5-carboxamide], the IC50 is reported as 0.147 nM. With `O=C(NC1CCN(C2Cc3ccccc3C2)C1=O)c1cnc(-c2cccc(F)c2)nc1` (stereo not shown) [Example 90, N-[1-(2,3-Dihydro-1H-inden-2-yl)-2-oxopyrrolidin-3-yl]-2-(3-fluorophenyl)pyrimidine-5-carboxamide] the IC50 was 0.808 nM. `CCCCOCCCN1CCC(NC(=O)c2cnc(-c3cccc(F)c3)nc2)C1=O` (stereo not shown) [Example 91, N-[1-(3-Butoxypropyl)-2-oxopyrrolidin-3-yl]-2-(3-fluorophenyl)pyrimidine-5-carboxamide] gave an IC50 of 2.8 nM. Compound `CC(C)(C)OC(=O)N1C[C@H](NC(=O)c2cnc(-c3cccc(F)c3)nc2)[C@@H](F)C1` [Example 92, tert-Butyl (3S,4S)-3-fluoro-4-({[2-(3-fluorophenyl)pyrimidin-5-yl]carbonyl}amino)pyrrolidine-1-carboxylate] has an IC50 of 2.87 nM. `Cc1cc(C)c(C#N)c(N2CC(NC(=O)c3cnc(-c4cccc(F)c4)nc3)C2)n1` [Example 103, N-[1-(3-Cyano-4,6-dimethylpyridin-2-yl)azetidin-3-yl]-2-(3-fluorophenyl)pyrimidine-5-carboxamide] showed an IC50 of 0.815 nM. Work on `O=C(NC1CN(c2nnnn2-c2ccccc2)C1)c1cnc(-c2cccc(F)c2)nc1` [Example 104, 2-(3-Fluorophenyl)-N-[1-(1-phenyl-1H-tetrazol-5-yl)azetidin-3-yl]pyrimidine-5-carboxamide] yielded an IC50 of 0.706 nM. Work on `O=C(NC1CN(c2cnc3ccccc3n2)C1)c1cnc(-c2cccc(F)c2)nc1` [Example 105, 2-(3-Fluorophenyl)-N-(1-quinoxalin-2-ylazetidin-3-yl)pyrimidine-5-carboxamide] yielded an IC50 of 0.364 nM. `CC(C)(C)C(=O)N1CC(NC(=O)c2cnc(-c3cccc(F)c3)nc2)C1` [Example 106, N-[1-(2,2-Dimethylpropanoyl)azetidin-3-yl]-2-(3-fluorophenyl)pyrimidine-5-carboxamide] showed an IC50 of 2.98 nM. In the case of `O=C(NC1CCN(CC(F)(F)F)CC1)c1cnc(-c2ccccc2CO)nc1` [Example 113, 2-[2-(Hydroxymethyl)phenyl]-N-[1-(2,2,2-trifluoroethyl)piperidin-4-yl]pyrimidine-5-carboxamide], the IC50 is reported as 1010 nM. `CC(=O)c1ccccc1-c1ncc(C(=O)NC2CCN(CC(F)(F)F)CC2)cn1` [Example 119, 2-(2-Acetylphenyl)-N-[1-(2,2,2-trifluoroethyl)piperidin-4-yl]pyrimidine-5-carboxamide] was tested, and the IC50 was 9460 nM. In the case of `COC(=O)c1cccc(-c2ncc(C(=O)NC3CCN(CC(F)(F)F)CC3)cn2)c1` [Example 125, Methyl 3-[5-({[1-(2,2,2-trifluoroethyl)piperidin-4-yl]amino}carbonyl)pyrimidin-2-yl]benzoate], the IC50 is reported as 270 nM. In the case of `CC(=O)c1cccc(-c2ncc(C(=O)NC3CCN(C(=O)C(C)(C)C)CC3)cn2)c1` [Example 142, 2-(3-Acetylphenyl)-N-[1-(2,2-dimethylpropanoyl)piperidin-4-yl]pyrimidine-5-carboxamide], the IC50 is reported as 64 nM. In the case of `O=C(NC1CCN(Cc2ccccn2)CC1)c1cnc(-c2cccc(CO)c2)nc1` [Example 159, 2-[3-(Hydroxymethyl)phenyl]-N-[1-(pyridin-2-ylmethyl)piperidin-4-yl]pyrimidine-5-carboxamide], the IC50 is reported as 2040 nM.
